From patent US20220298135A1, “5-HETEROARYL-PYRIDIN-2-AMINE COMPOUNDS AS NEUROPEPTIDE FF RECEPTOR ANTAGONISTS” (Domain Therapeutics, priority 2019, published 2022)

Key:
[1] = biological target: T1, human NPFFR1 (hNPFFR1) receptor (Homo sapiens, UniProt Q9GZQ6); experiment: Human NPFFR1 evaluation using BRET biosensors (antagonist IC50); format: cell-based; details: hNPFFR1 transiently over-expressed in HEK-293 T cells; BRET signal; stimulation by EC80 RFRP-3
T1 construct: expressed in transfected cells; host or cells: HEK-293 T cells, transient co-transfection with polyethylenimine
T1 sequence (Q9GZQ6 whole entry): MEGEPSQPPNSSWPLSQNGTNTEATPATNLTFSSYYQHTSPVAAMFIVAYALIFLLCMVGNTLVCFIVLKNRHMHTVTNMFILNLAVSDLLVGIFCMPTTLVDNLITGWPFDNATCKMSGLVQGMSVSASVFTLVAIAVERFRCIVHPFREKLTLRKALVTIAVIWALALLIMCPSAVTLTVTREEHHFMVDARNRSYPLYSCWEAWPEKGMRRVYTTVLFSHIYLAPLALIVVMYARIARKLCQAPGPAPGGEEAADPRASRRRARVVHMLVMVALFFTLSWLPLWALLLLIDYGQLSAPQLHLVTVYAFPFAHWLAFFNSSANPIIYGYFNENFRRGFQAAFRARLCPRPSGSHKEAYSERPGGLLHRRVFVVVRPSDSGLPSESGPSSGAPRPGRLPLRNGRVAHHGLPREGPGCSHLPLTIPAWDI
Method: Compounds of the present invention were tested successively for their agonist and antagonist activities on human NPFFR1 (hNPFFR1) receptor transiently over-expressed in HEK-293 T cells. Compounds exert agonist activity if, by themselves in absence of neuropeptide RFRP-3 (also named NPVF) they activate hNPFFR1; and they exert antagonist activity if they decrease the action of RFRP-3 on the receptor.
The assay used to measure compound activity is based on BRET (Bioluminescence Resonance Energy Transfer) biosensors and is designed to monitor the plasma membrane translocation of protein that interacts with specific Ga subunit. The specific effector (luciferase tagged: BRET donor) recruited at the membrane will be in close proximity to a plasma membrane anchor (GFP tagged: BRET acceptor) to induce a BRET signal. Biosensors are described in the patent application WO 2016/041093 A1 (Biosensors for monitoring biomolecule localization and trafficking in cells).
HEK-293 T cells are maintained in Dulbecco's Modified Eagle's Medium supplemented with 10% Foetal Calf Serum, 1% Penicillin/Streptomycin at 37° C./5% CO2.
Cells are co-transfected using polyethylenimine (25 kDa linear) with four DNA plasmids encoding: hNPFFR1, GαoB, a Gi family specific intracellular effector fused to luciferase (BRET donor), a plasma membrane effector fused to GFP (BRET acceptor). After transfection, cells are cultured for 48 h at 37° C./5% CO2.
Receptor activity is detected by changes in BRET signal.
On the day of the assay, cells are detached using trypsin 0.05%, resuspended in assay buffer (1.8 mM CaCl2, 1 mM MgCl2, 2.7 mM KCl, 137 mM NaCl, 0.4 mM NaH2PO4, 5.5 mM D-Glucose, 11.9 mM NaHCO3, 25 mM Hepes) and seeded in 384 well plate at a density of 20,000 cells per well. Then, plates are equilibrated 3.5 hours at 37° C. before adding compounds.
Compounds and luciferase substrate are added to the cells using an automated device (Freedom Evo®, Tecan) and BRET readings are collected on EnVision (PerkinElmer) with specific filters (410 nm BW 80 nm, 515 nm BW 30 nm).
Agonist and antagonist activities of compounds are consecutively evaluated on the same cell plate. Agonist activity is first measured after 10 minutes incubation with compound alone on the cells. Then, cells are stimulated by an EC80 RFRP-3 concentration and luminescence is recorded for additional 10 minutes. EC80 RFRP-3 concentration is the concentration giving 80% of the maximal RFRP-3 response. Agonist or antagonist activities are evaluated in comparison to basal signals evoked by assay buffer or EC80 RFRP-3 alone, respectively.
For IC50 determination, a dose-response test is performed using 20 concentrations (ranging over 6 logs) of each compound. Dose-response curves are fitted using the sigmoidal dose-response (variable slope) analysis in GraphPad Prism software (GraphPad Software) and IC50 of antagonist activity is calculated. Dose-response experiments are performed in duplicate, in two independent experiments.

Row | Structure (SMILES) | IC50 [1] [nM] | melting point [°C]
1 | CCc1nc(N)ccc1-c1c(F)ccc2ccc(N3CCOCC3)nc12.Cl [Example 135, 6-ethyl-5-(7-fluoro-2-morpholinoquinolin-8-yl)pyridin-2-amine] | < 100 | 100 to 146
2 | CCc1nc(N)ccc1-c1c(F)ccc2ccc(=O)[nH]c12.Cl [Example 158, 8-(6-amino-2-ethylpyridin-3-yl)-7-fluoroquinolin-2(1H)-one] | 100 to 1000 | 172 to 208
3 | CCc1nc(N)ccc1-c1c(C)sc2ccccc12.Cl [Example 41, 6-Ethyl-5-(2-methylbenzothiophen-3-yl)pyridin-2-amine] | 100 to 1000 | 70 to 72
4 | CCc1nc(N)ccc1-c1cccc2ccc(C(=O)N3CCCC3)nc12.Cl [Example 141, (8-(6-amino-2-ethylpyridin-3-yl)quinolin-2-yl)(pyrrolidin-1-yl)methanone] | < 100 | 100 to 125
5 | CCc1nc(N)ccc1-c1cccc2ccc(C(=O)N3CCC(c4ccccc4)CC3)nc12.Cl [Example 172, (8-(6-amino-2-ethylpyridin-3-yl)quinolin-2-yl)(4-phenylpiperidin-1-yl)methanone] | 100 to 1000 | > 250
6 | CCc1nc(N)ccc1-c1cc(C)cc2cccnc12.Cl [Example 77, 6-ethyl-5-(6-methylquinolin-8-yl)pyridin-2-amine] | < 100 | 100 to 140
7 | CCc1nc(N)ccc1-c1cccc2cc3c(nc12)CCC3.Cl [Example 115, 5-(2,3-dihydro-1H-cyclopenta[b]quinolin-5-yl)-6-ethylpyridin-2-amine] | < 100 | 153 to 169
8 | CCc1nc(N)ccc1-c1c(OC(F)F)ccc2cccnc12.Cl [Example 105, 5-(7-(difluoromethoxy)quinolin-8-yl)-6-ethylpyridin-2-amine] | < 100 | 120 to 160
9 | CCc1nc(N)ccc1-c1cccc2c1NC(=O)CC2.Cl [Example 155, 8-(6-amino-2-ethylpyridin-3-yl)-3,4-dihydroquinolin-2(1H)-one] | 100 to 1000 | 233 to 237
10 | CCc1nc(N)ccc1-c1c(F)cc(F)c2ccc(=O)[nH]c12.Cl [Example 159, 8-(6-amino-2-ethylpyridin-3-yl)-5,7-difluoroquinolin-2(1H)-one] | 100 to 1000 | > 250
11 | Cl.Nc1ccc(-c2c(F)ccc3ccc(O)nc23)c(N)n1 [Example 62, 8-(2,6-diaminopyridin-3-yl)-7-fluoroquinolin-2-ol] | < 100 | 210 to 230
12 | CCc1nc(N)ccc1-c1cccc2c1N(C)CC2.Cl [Example 162, 6-ethyl-5-(1-methylindolin-7-yl)pyridin-2-amine] | 100 to 1000 | > 250
13 | CCc1nc(N)ccc1-c1cccc2cccnc12.Cl [Example 47, 6-ethyl-5-(quinolin-8-yl)pyridin-2-amine] | < 100 | > 250
14 | CC(C)c1nc(N)ccc1-c1cccc2ccncc12.Cl [Example 12, 6-Isopropyl-5-(8-isoquinolyl)pyridin-2-amine] | 100 to 1000 | > 250
15 | Cl.Nc1ccc(-c2c(F)c(F)cc3ccc(O)nc23)c(N)n1 [Example 64, 8-(2,6-diaminopyridin-3-yl)-6,7-difluoroquinolin-2-ol] | < 100 | > 250
16 | CCc1nc(N)ccc1-c1ccccc1-c1ccc(N2CCCCC2)nc1.Cl [Example 80, 6-ethyl-5-(2-(6-(piperidin-1-yl)pyridin-3-yl)phenyl)pyridin-2-amine] | 100 to 1000 | 50 to 80
17 | Cl.Nc1ccc(-c2ccc(C(F)(F)F)c3cccnc23)c(N)n1 [Example 54, 3-(5-(trifluoromethyl)quinolin-8-yl)pyridine-2,6-diamine] | > 1000 | > 250
18 | Cl.Nc1ccc(-c2cccc3scnc23)c(N)n1 [Example 30, 3-(1,3-Benzothiazol-4-yl)pyridine-2,6-diamine] | 100 to 1000 | > 250

Row | Structure (SMILES) | IC50 [1] [nM] | melting point [°C]
19 | CCc1nc(N)ccc1-c1ccccc1-c1cccnc1.Cl [Example 44, 6-Ethyl-5-[2-(3-pyridyl)phenyl]pyridin-2-amine] | 100 to 1000 | > 250
20 | CCc1nc(N)ccc1-c1cccc2ccc(-c3ccccn3)nc12.Cl [Example 119, 6-ethyl-5-(2-(pyridin-2-yl)quinolin-8-yl)pyridin-2-amine] | < 100 | 111 to 116
21 | CCc1nc(N)ccc1-c1c(F)c(F)cc2cc(F)cnc12.Cl [Example 150, 6-ethyl-5-(3,6,7-trifluoroquinolin-8-yl)pyridin-2-amine] | < 100 | 120 to 130
22 | Cl.Nc1ccc(-c2cccc3c2OCCC3)c(N)n1 [Example 37, 3-Chroman-8-yl-pyridine-2,6-diamine] | < 100 | 110 to 124
23 | CCc1nc(N)ccc1-c1cccc2c1NCCC2.Cl [Example 106, 6-ethyl-5-(1,2,3,4-tetrahydroquinolin-8-yl)pyridin-2-amine] | 100 to 1000 | 147 to 160
24 | CCc1nc(N)ccc1-c1cccc2cc(C)cnc12.Cl [Example 95, 6-ethyl-5-(3-methylquinolin-8-yl)pyridin-2-amine] | < 100 | > 250
25 | CCc1nc(N)ccc1-c1ccccc1-c1ccc(C(F)(F)F)nc1.Cl [Example 81, 6-ethyl-5-(2-(6-(trifluoromethyl)pyridin-3-yl)phenyl)pyridin-2-amine] | 100 to 1000 | > 250
26 | CCc1nc(N)ccc1-c1c(F)ccc2c1OCC=CC2.Cl [Example 178, 6-ethyl-5-(8-fluoro-2,5-dihydrobenzo[b]oxepin-9-yl)pyridin-2-amine] | < 100 | 43 to 52
27 | CCc1nc(N)ccc1-c1cccc2ccc(-c3ccc4nccn4c3)nc12.Cl [Example 123, 6-ethyl-5-(2-(imidazo[1,2-a]pyridin-6-yl)quinolin-8-yl)pyridin-2-amine] | < 100 | 70 to 75
28 | Cl.Nc1ccc(-c2csc3ccccc23)c(N)n1 [Example 21, 3-(Benzothiophen-3-yl)pyridine-2,6-diamine] | 100 to 1000 | 35 to 38
29 | CCc1nc(N)ccc1-c1cccc2ccc(=O)[nH]c12.Cl [Example 154, 8-(6-amino-2-ethylpyridin-3-yl)quinolin-2(1H)-one] | 100 to 1000 | > 250
30 | CCc1nc(N)ccc1-c1c(F)ccc2c1OC(C)(C)CC2.Cl [Example 177, 6-ethyl-5-(7-fluoro-2,2-dimethylchroman-8-yl)pyridin-2-amine] | < 100 | 80 to 90
31 | Cl.Nc1ccc(-c2ccccc2-c2ccc(N3CCOCC3)nc2)c(N)n1 [Example 46, 3-[2-(6-morpholino-3-pyridyl)phenyl]pyridine-2,6-diamine] | < 100 | 180 to 210
32 | Cl.Nc1ccc(-c2ccc(F)c3cccnc23)c(N)n1 [Example 55, 3-(5-fluoroquinolin-8-yl)pyridine-2,6-diamine] | < 100 | 73 to 81
33 | CCc1nc(N)ccc1-c1cccc2ccc(C(=O)N3CCCCCC3)nc12.Cl [Example 169, (8-(6-amino-2-ethylpyridin-3-yl)quinolin-2-yl)(azepan-1-yl)methanone] | < 100 | 140 to 144
34 | Cl.Nc1ccc(-c2cccc3cccnc23)c(CC2CCC2)n1 [Example 68, 6-(cyclobutylmethyl)-5-(quinolin-8-yl)pyridin-2-amine] | < 100 | 120 to 180
35 | Cl.Nc1ccc(-c2cccc3sccc23)c(N)n1 [Example 51, 3-(benzo[b]thiophen-4-yl)pyridine-2,6-diamine] | < 100 | 100 to 120
